A value given as a limit tells only on which side of the number the result lay.

For this test, the target named is Huntingtin (Homo sapiens, UniProt P42858). Nature of the test: Inhibition of Huntingtin protein (unknown origin) incubated for overnight in presence of MW1/MAB2166 monoclonal antibody by ELISA-based MSD electrochemiluminescence assay.
Chain of Huntingtin (P42858 whole entry): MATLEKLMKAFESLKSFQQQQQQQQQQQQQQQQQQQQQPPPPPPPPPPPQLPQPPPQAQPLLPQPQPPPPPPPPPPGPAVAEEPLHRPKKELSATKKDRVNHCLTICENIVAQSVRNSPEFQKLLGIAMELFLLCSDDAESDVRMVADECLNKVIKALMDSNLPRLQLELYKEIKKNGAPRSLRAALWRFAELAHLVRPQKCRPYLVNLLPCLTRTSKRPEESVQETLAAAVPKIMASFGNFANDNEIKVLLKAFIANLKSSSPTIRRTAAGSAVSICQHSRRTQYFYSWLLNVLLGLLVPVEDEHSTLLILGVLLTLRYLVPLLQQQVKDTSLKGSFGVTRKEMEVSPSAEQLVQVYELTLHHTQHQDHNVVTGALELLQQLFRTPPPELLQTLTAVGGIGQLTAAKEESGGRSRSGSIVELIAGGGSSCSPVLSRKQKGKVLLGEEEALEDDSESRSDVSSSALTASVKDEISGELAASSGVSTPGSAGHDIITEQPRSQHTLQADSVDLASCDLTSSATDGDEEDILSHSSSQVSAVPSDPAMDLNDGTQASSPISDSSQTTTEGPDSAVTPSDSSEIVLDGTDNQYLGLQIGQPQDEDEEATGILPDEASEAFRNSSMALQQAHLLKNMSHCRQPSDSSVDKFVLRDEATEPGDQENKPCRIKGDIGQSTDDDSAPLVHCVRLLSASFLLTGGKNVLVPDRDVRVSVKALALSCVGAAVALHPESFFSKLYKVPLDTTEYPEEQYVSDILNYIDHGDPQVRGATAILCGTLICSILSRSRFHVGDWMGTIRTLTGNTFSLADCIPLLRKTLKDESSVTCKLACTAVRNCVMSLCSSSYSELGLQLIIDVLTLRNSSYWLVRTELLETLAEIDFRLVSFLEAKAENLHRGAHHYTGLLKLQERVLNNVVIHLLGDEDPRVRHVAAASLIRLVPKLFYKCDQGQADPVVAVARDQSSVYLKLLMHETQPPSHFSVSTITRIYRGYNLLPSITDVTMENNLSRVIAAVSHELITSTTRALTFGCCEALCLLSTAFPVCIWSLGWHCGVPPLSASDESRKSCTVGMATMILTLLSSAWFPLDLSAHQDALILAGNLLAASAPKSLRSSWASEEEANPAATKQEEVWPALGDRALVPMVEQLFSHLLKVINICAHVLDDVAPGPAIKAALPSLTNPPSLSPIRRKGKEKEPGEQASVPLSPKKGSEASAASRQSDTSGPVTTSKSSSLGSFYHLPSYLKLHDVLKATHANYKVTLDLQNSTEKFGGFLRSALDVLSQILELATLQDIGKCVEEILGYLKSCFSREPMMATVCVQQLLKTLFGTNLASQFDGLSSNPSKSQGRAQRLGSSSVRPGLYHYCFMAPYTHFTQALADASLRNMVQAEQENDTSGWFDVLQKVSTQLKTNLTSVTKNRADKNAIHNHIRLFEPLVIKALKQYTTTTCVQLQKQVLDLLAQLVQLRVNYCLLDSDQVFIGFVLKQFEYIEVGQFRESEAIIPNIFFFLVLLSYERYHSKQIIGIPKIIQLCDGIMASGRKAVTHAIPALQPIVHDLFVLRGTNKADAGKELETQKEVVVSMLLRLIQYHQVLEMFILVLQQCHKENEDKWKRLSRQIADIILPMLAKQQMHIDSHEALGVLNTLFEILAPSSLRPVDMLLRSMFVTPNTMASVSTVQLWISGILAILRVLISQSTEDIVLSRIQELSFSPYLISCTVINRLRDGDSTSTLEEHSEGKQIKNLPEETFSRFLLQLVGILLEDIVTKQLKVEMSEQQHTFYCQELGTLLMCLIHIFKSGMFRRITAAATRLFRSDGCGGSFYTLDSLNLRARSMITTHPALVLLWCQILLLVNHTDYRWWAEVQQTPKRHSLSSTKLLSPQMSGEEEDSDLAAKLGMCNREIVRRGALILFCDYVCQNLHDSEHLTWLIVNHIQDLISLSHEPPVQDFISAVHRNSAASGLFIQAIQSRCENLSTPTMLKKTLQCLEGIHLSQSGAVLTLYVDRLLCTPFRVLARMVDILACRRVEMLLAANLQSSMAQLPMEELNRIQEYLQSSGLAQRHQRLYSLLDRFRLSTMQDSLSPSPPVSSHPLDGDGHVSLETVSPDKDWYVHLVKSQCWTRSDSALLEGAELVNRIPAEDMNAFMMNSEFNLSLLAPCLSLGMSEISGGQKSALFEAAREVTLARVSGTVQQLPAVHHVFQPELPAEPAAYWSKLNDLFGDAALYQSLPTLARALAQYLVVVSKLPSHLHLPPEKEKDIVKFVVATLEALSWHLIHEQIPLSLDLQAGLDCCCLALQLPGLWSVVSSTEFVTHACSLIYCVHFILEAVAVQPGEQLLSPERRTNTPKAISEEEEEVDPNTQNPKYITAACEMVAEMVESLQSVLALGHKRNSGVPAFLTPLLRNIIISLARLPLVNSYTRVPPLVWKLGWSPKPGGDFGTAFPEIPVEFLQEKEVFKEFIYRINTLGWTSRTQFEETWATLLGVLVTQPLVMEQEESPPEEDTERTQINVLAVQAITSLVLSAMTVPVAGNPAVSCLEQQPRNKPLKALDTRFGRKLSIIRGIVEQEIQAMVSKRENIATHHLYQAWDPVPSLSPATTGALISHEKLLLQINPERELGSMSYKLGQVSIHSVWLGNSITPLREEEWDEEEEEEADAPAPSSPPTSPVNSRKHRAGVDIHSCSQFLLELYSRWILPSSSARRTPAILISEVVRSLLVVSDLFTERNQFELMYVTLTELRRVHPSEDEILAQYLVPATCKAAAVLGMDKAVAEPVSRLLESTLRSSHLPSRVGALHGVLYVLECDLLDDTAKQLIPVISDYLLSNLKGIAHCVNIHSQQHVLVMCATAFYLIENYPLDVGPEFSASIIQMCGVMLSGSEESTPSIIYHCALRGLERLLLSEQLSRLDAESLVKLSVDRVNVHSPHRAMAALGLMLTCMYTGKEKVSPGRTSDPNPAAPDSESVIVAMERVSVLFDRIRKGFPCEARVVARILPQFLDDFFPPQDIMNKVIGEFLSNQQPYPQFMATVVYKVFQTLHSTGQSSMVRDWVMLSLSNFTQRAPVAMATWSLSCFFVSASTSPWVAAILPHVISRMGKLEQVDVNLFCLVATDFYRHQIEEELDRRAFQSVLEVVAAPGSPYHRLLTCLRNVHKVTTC
Turning to `Cn1cc(-c2ccc(-c3cnc(NC4CC(C)(C)NC(C)(C)C4)nn3)c(O)c2)cn1`, the IC50 was ≤ 0.1 µM.

Regarding `CN(c1cnc(-c2ccc(-n3nccn3)cc2O)nn1)C1CC(C)(C)NC(C)(C)C1`, the IC50 is ≤ 0.1 µM.

In the case of `CN(c1cnc(-c2ccc(-c3cn[nH]c3F)cc2O)nn1)C1CC(C)(C)NC(C)(C)C1`, the IC50 was ≤ 0.1 µM.

`CC1(C)CC(Nc2cnc(-c3ccc(-c4cn[nH]c4)cc3O)nn2)C(F)C(C)(C)N1` (stereo unspecified): the IC50 was ≤ 0.1 µM.

Regarding `CC(C)(C)NC1CCN(c2ncc(-c3ccc(-c4c[nH]nc4C#N)cc3O)nn2)C1` (stereo unspecified), the IC50 was ≤ 0.1 µM.

Consider `CN(c1ncc(-c2ccc(-c3ncco3)cc2O)nn1)C1CC(C)(C)NC(C)(C)C1`, for which the IC50 was ≤ 0.1 µM.

The record behind these values is ChEMBL document CHEMBL4715900, “Novel Substituted Monocyclic Heteroaryl Compounds for Treating Huntington's Disease” (ACS Med Chem Lett, 2021).
